{
  "source": "patent US11103488B2",
  "about": "“Methods of treating autoimmune, respiratory and inflammatory disorders by inhalation of roflumilast N-oxide” (Incozen Therapeutics Pvt. Ltd., priority 2013, dated 2021)",
  "key": {"[1]": {"assay": "Lung microsome metabolic stability, rat", "type": "in vitro ADME", "settings": "rat lung microsomes, 1 μM test item, 60 minutes, NADPH", "protocol": "(§1) Metabolic stability studies were conducted using rat, dog and human lung microsomes. The protocol for the studies with rat, dog, and human lung microsomes (from Xenotech, USA) is provided below.\n(§2) 0.4 mg protein was preincubated with 2 mM NADPH (cofactor) in phosphate buffer (pH˜7.4) for 15 minutes at […] and then added with 1 μM test item and incubated further for 60 minutes in triplicate. The reaction mixture was terminated with methanol containing an internal standard and centrifuged further to analyze the test item remaining in the supernatant by LC-MS/MS. The percent parent compound remaining was calculated in comparison with similar samples terminated at 0 minutes."}, "[2]": {"assay": "Lung microsome metabolic stability, dog", "type": "in vitro ADME", "settings": "dog lung microsomes, 1 μM test item, 60 minutes, NADPH", "protocol": "as §1, §2"}, "[3]": {"assay": "Pulmonary kinetics by intratracheal route, multiple dose (7 days)", "type": "in vivo, Wistar rats", "settings": "1 mg/kg IT for 7 days; for Tmax / half-life / AUC(0-inf) / AUC(0-t) / Cmax: 1 mg/kg", "protocol": "Male and female Wistar rats were weighed and randomized for groups for various time points. Roflumilast N-oxide was prepared as a suspension in a suitable vehicle for intratracheal administration. For intratracheal dosing, animals were anesthetized with ketamine (50 mg/kg; i.p.) and roflumilast N-oxide was administered via an Intratracheal Microsprayer® Aerosolizer for Rat with a 0.5 ml glass syringe (Model IA-1B-R-GL500) (Penn Century, US). A volume level of 0.5 ml/kg was administered into the airway system of the rat at a dose of 1.0 mg/kg for the single dose and multiple dose study. The animals were kept under normal regular diet conditions and rat chew diet was provided ad libitum throughout the study. The blood and lung samples (all collections each of 150 μl from each animal) were collected according to the sampling schedule. Blood samples were collected from orbital sinus into the microfuge tubes containing dipotassium EDTA as an anticoagulant. Blood samples were centrifuged immediately with a speed of 1000 g for 10 minutes at 4° C. and separated plasma samples were frozen at below −80° C. and stored until analysis. The plasma and lung concentrations of roflumilast N-oxide in all samples were analyzed by LC-MS/MS (using X-Calibur 2.0.7 software) as per the established method. The samples below the lower limit of quantification (LOQ) were mentioned as (BLQ) below level of quantification in raw data and the results were tabulated accordingly. Pharmacokinetic parameters Cmax, AUC0-t, AUC0-∞, Tmax, t1/2, Kel, VZ, and CLZ were estimated for the above concentrations using WinNonlin (Phoenix 6.1 software) and the results were tabulated. Pharmacokinetic parameters in plasma were calculated from concentration data as ng/ml. Cmax and AUC values were reported in terms of ng/ml and ng·h/ml, respectively.\nPharmacokinetic parameters in the lungs were calculated from concentration data as ng/g. Cmax and AUC values were reported in terms of ng/g and ng·h/g, respectively. The lung to plasma concentration ratio was calculated by assuming equal to 1 the plasma density. The time-mean plasma concentration plots for roflumilast N-oxide were done using Graph pad Prism 5.02 software."}, "macrophage infiltration": {"tested_on": "macrophage infiltration", "assay": "Acute cigarette smoke induced cell infiltration, macrophages", "type": "in vivo, female Balb/c mice", "settings": "for Percent inhibition in macrophage infiltration: intranasal, day 1 to day 4", "protocol": "Animals were acclimatized for seven days prior to the start of the experiment. The animals were randomly distributed to various groups based on their body weight. For oral administration of roflumilast and for intranasal administration of roflumilast N-oxide, roflumilast or roflumilast N-oxide were prepared as a suspension in a suitable vehicle. On day 1, mice were administered roflumilast N-oxide or roflumilast and after 1 hour, the animals were placed in a whole body exposure box. On day 1 and day 2, the mice were exposed to the mainstream smoke of 6 cigarettes, and 8 cigarettes on day 3 and day 4. Exposure to the smoke of each cigarette lasted for 10 minutes (cigarettes were completely burned in the first two minutes and followed by an air flow with animal ventilator, then 20 minutes exposure to fresh room air). After every second cigarette an additional break of 20 minutes with exposure to fresh room air was conducted. Control animals were exposed to room air chamber. From day 1 to day 4, the animals were administered roflumilast N-oxide or roflumilast. On day 5, 24 hours after the last cigarette smoke (CS) exposure, the animals were exsanguinated under anaesthesia, the trachea were cannulated and the lungs were lavaged with 0.5-ml aliquots of heparinised PBS (1 unit/ml) four times through tracheal cannula (total volume 2 ml). Bronchioalveolar (BAL) collected was stored at 2-8° C. until assayed for total cell and differential leukocyte count. BAL fluid was centrifuged (500×g for 10 minutes) and the resulting cell pellet was resuspended in 0.5 ml of heparinised saline. The total number of white blood cells was determined in BAL fluid and adjusted to 1×10^6 cell/ml. Differential cell count was calculated manually by diff-quick staining. Forty microliters of the cell suspension was centrifuged using cytospin 3 to prepare a cell smear. The cell smear was stained with a blood staining solution for differentiation and microscopically observed to identify cell type according to their morphological characteristics. The number of each cell type among 300 white blood cells in the cell smear were determined and expressed as a percentage, and the number of neutrophils and macrophages in each BAL fluid were calculated.\nRoflumilast and roflumilast N-oxide as a suspension in polysorbate 80 (1% v/v) and methyl cellulose (MC) (0.5% w/v) were used for oral and intranasal administration respectively."}, "[4]": {"assay": "14-day repeat dose safety study", "type": "in vivo, Wistar Rats", "settings": "Intratracheal, 1000 ug/kg/day, 14 days", "protocol": "In order to determine the safety of roflumilast N-oxide by inhalation compared to roflumilast by oral administration, a 7- and 14-day repeat dose safety study was conducted according to the protocol given in Table 5 below."}},
  "note": "Like-named read-outs stand apart in the source and are kept apart here.",
  "data": [
    {"smiles": "O=C(Nc1c(Cl)c[n+]([O-])cc1Cl)c1ccc(OC(F)F)c(OCC2CC2)c1", "note": "[Roflumilast N-oxide]", "values": [
      {"measurement": "Percent Parent Compound Remaining, Rat", "setting": "[1]", "value": 100.0, "unit": "%"},
      {"measurement": "Percent Parent Compound Remaining, Dog", "setting": "[2]", "value": 98.3, "unit": "%"},
      {"measurement": "AUC0-inf, Lung, Day-1, N-Oxide", "setting": "[3]; lung, Day-1", "value": 47.96, "unit": "µg·h/g"},
      {"measurement": "AUC0-t, Lung, Day-1, N-Oxide", "setting": "[3]; lung, Day-1", "value": 47.88, "unit": "µg·h/g"},
      {"measurement": "Cmax, Lung, Day-1, N-Oxide", "setting": "[3]; lung, Day-1", "value": 26.35, "unit": "µg/g"},
      {"measurement": "AUC0-inf, Lung, Day-7, N-Oxide", "setting": "[3]; lung, Day-7", "value": 18.04, "unit": "µg·h/g"},
      {"measurement": "AUC0-t, Lung, Day-7, N-Oxide", "setting": "[3]; lung, Day-7", "value": 17.96, "unit": "µg·h/g"},
      {"measurement": "AUCtau, Lung, Day-7, N-Oxide", "setting": "[3]; lung, Day-7", "value": 18.51, "unit": "µg·h/g"},
      {"measurement": "Cavg, Lung, Day-7, N-Oxide", "setting": "[3]; lung, Day-7", "value": 0.77, "unit": "µg/g"},
      {"measurement": "Cmax, Lung, Day-7, N-Oxide", "setting": "[3]; lung, Day-7", "value": 23.15, "unit": "µg/g"},
      {"measurement": "Cmin, Lung, Day-7, N-Oxide", "setting": "[3]; lung, Day-7", "value": 0.00, "unit": "µg/g"},
      {"measurement": "Cavg, Plasma, Day-7, N-Oxide", "setting": "[3]; plasma, Day-7", "value": 120, "unit": "ng/mL"},
      {"measurement": "Cmin, Plasma, Day-7, N-Oxide", "setting": "[3]; plasma, Day-7", "value": 0, "unit": "ng/mL"},
      {"measurement": "AUC", "setting": "[3]; both sexes, Wistar, rat, inhaled or intranasal, plasma, Day-7, read-out: AUCtau, Plasma, Day-7, N-Oxide", "value": 2810, "unit": "ng·h/mL"},
      {"measurement": "Tmax", "setting": "[3]; both sexes, Wistar, rat, lung, inhaled or intranasal, lung, Day-1, read-out: Tmax, Lung, Day-1, N-Oxide", "value": 15, "unit": "min"},
      {"measurement": "half-life", "setting": "[3]; both sexes, Wistar, rat, lung, inhaled or intranasal, lung, Day-1, read-out: t1/2, Lung, Day-1, N-Oxide (converted)", "value": 152, "unit": "min"},
      {"measurement": "Tmax", "setting": "[3]; both sexes, Wistar, rat, lung, inhaled or intranasal, lung, Day-7, read-out: Tmax, Lung, Day-7, N-Oxide", "value": 15, "unit": "min"},
      {"measurement": "half-life", "setting": "[3]; both sexes, Wistar, rat, lung, inhaled or intranasal, lung, Day-7, read-out: t1/2, Lung, Day-7, N-Oxide (converted)", "value": 48.6, "unit": "min"},
      {"measurement": "AUC(0-inf)", "setting": "[3]; both sexes, Wistar, rat, plasma, inhaled or intranasal, plasma, Day-1, read-out: AUC0-inf, Plasma, Day-1, N-Oxide", "value": 4350, "unit": "ng·h/mL"},
      {"measurement": "AUC(0-t)", "setting": "[3]; both sexes, Wistar, rat, plasma, inhaled or intranasal, plasma, Day-1, read-out: AUC0-t, Plasma, Day-1, N-Oxide", "value": 4160, "unit": "ng·h/mL"},
      {"measurement": "Cmax", "setting": "[3]; both sexes, Wistar, rat, plasma, inhaled or intranasal, plasma, Day-1, read-out: Cmax, Plasma, Day-1, N-Oxide", "value": 530, "unit": "ng/mL"},
      {"measurement": "Tmax", "setting": "[3]; both sexes, Wistar, rat, plasma, inhaled or intranasal, plasma, Day-1, read-out: Tmax, Plasma, Day-1, N-Oxide", "value": 15, "unit": "min"},
      {"measurement": "half-life", "setting": "[3]; both sexes, Wistar, rat, plasma, inhaled or intranasal, plasma, Day-1, read-out: t1/2, Plasma, Day-1, N-Oxide (converted)", "value": 326, "unit": "min"},
      {"measurement": "AUC(0-inf)", "setting": "[3]; both sexes, Wistar, rat, plasma, inhaled or intranasal, plasma, Day-7, read-out: AUC0-inf, Plasma, Day-7, N-Oxide", "value": 2390, "unit": "ng·h/mL"},
      {"measurement": "AUC(0-t)", "setting": "[3]; both sexes, Wistar, rat, plasma, inhaled or intranasal, plasma, Day-7, read-out: AUC0-t, Plasma, Day-7, N-Oxide", "value": 2250, "unit": "ng·h/mL"},
      {"measurement": "Cmax", "setting": "[3]; both sexes, Wistar, rat, plasma, inhaled or intranasal, plasma, Day-7, read-out: Cmax, Plasma, Day-7, N-Oxide", "value": 560, "unit": "ng/mL"},
      {"measurement": "Tmax", "setting": "[3]; both sexes, Wistar, rat, plasma, inhaled or intranasal, plasma, Day-7, read-out: Tmax, Plasma, Day-7, N-Oxide", "value": 60, "unit": "min"},
      {"measurement": "half-life", "setting": "[3]; both sexes, Wistar, rat, plasma, inhaled or intranasal, plasma, Day-7, read-out: t1/2, Plasma, Day-7, N-Oxide (converted)", "value": 91.8, "unit": "min"},
      {"measurement": "ED50", "setting": "macrophage infiltration; Mus musculus, Macrophage, inhaled or nasal, intranasal administration, read-out: 50% inhibition (ED50) dose, macrophage infiltration", "value": 0.049, "unit": "mg/kg"},
      {"measurement": "Percent inhibition in macrophage infiltration", "setting": "macrophage infiltration; 0.003 mg/kg", "value": 50.68, "unit": "%"},
      {"measurement": "Percent inhibition in macrophage infiltration", "setting": "macrophage infiltration; 0.03 mg/kg", "value": 55.10, "unit": "%"},
      {"measurement": "Percent inhibition in macrophage infiltration", "setting": "macrophage infiltration; 0.3 mg/kg", "value": 62.79, "unit": "%"},
      {"measurement": "Percent inhibition in macrophage infiltration", "setting": "macrophage infiltration; 3 mg/kg", "value": 63.35, "unit": "%"},
      {"measurement": "MORTALITY", "setting": "[4]", "value": "No Mortality"}
    ]}
  ]
}
